From PubChem BioAssay (NCI)
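Tested at 5 concentrations; 48 h exposure; 96-well plates; endpoints linearly interpolated, else capped at highest concentration. At the GI50, growth is halved. TGI is the concentration that stops growth completely.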 Where a SMILES comes first, the peptide text is derived from it. Peptide text beside a SMILES is read from it. The star is where a group is joined. * marks the point of attachment. Palmitoyl = CCCCCCCCCCCCCCCC(=O)*; Boc = CC(C)(C)OC(=O)*

Experiments:
Test in all cases: inhibition of tumour cell growth, NCI panel, 48 h
[1] = system: NCI-H226 lung
[2] = system: U251 CNS
[3] = system: K-562 leukemia
[4] = system: HCC-2998 colon
[5] = system: HCT-15 colon
[6] = system: LOX IMVI melanoma
[7] = system: DU-145 prostate
[8] = system: MDA-MB-435
[9] = system: TK-10 renal
[10] = system: MCF7 breast

Row | Structure (SMILES) | TGI [1] [µM] | TGI [2] [µM] | TGI [3] [µM] | TGI [4] [µM] | TGI [5] [µM] | TGI [6] [µM] | TGI [7] [µM] | TGI [8] [µM] | TGI [9] [µM] | TGI [10] [µM] | GI50 [1] [µM] | GI50 [7] [µM] | GI50 [8] [µM] | GI50 [3] [µM] | GI50 [9] [µM] | GI50 [4] [µM] | GI50 [10] [µM]
1 | CCN(CC)c1ccc(C(=C2C=CC(=[N+](CC)CC)C=C2)c2ccccc2)cc1 | 0.0683 | 0.112 | 0.0968 | 0.135 | 0.587 | 0.105 |  |  |  |  |  |  |  |  |  |  | 
2 | COc1ccc([C@@]23CCC(=O)C[C@@H]2N(C)CC3)cc1OC | > 100 | > 100 | > 100 | > 100 | > 100 | > 100 | > 100 | > 100 | > 100 | > 100 |  |  |  |  |  |  | 
3 | CSCCC(NC(=O)C(CC(C)C)NC(=O)CNC(=O)OC(C)(C)C)C(=O)N(C)C (stereo not drawn) (Boc-Gly-Leu-Met-NMe2; configuration not given here) | > 100 | > 100 | > 100 |  | > 100 | > 100 | > 100 | > 100 | > 100 | > 100 |  |  |  |  |  |  | 
4 | COC1=CC2(C=CC1=O)CCN=c1c(O)c3c(c(O)c12)=NC=N3 (stereo unspecified) |  | > 100 | > 100 | > 100 | > 100 | > 100 | > 100 | > 100 | > 100 | > 100 |  |  |  |  |  |  | 
5 | CC(=O)Nc1ncc2c(n1)-c1ccccc1OC2 | > 100 | > 100 |  |  | > 100 | > 100 | > 100 | > 100 | > 100 | > 100 |  |  |  |  |  |  | 
6 | COc1ccc(-c2c(C(C)=O)c(C)n(C3OC(CO)C(O)C(O)C3O)c(=S)c2C#N)cc1 (stereo unspecified) |  | > 100 | > 100 |  | > 100 | > 100 | > 100 | > 100 | > 100 | > 100 |  |  |  |  |  |  | 
7 | COc1ccc(S(=O)(=O)Nc2ccc(-c3csc(N4C(=O)/C(=C/C=C\c5ccccc5)N=C4c4ccccc4)n3)cc2)cc1Cl | > 100 | 76.4 | > 100 |  | 51.5 | 46.3 | 91.6 | 62 | > 100 | > 100 |  |  |  |  |  |  | 
8 | CC(=O)OCC1OC(n2c3c(c(-c4ccco4)c(C#N)c2=S)CCCC3)C(OC(C)=O)C(OC(C)=O)C1OC(C)=O (stereo unspecified) | > 31.6 |  |  |  | > 31.6 | > 31.6 | > 31.6 | > 100 | 24.8 | > 100 |  |  |  |  |  |  | 
9 | c1csc(-c2ccc(-c3ccc(-c4cccs4)s3)s2)c1 | > 100 | > 100 |  | > 100 | > 100 | > 100 | > 100 | > 100 | > 100 | > 100 |  |  |  |  |  |  | 
10 | O=C1N2CCc3c([nH]c4ccccc34)C23CC2CCCC12S3 (stereo unspecified) | > 50 | > 50 | > 50 |  | > 50 | > 50 | > 50 | > 50 | > 50 | > 50 |  |  |  |  |  |  | 
11 | COCCCN1C(=O)C2c3[nH]c4ccccc4c3C3CCC(C(C)(C)C)CC3C2C1=O (stereo unspecified) | 60.6 | 34.5 | > 10 | 54.6 | 44.7 |  | > 100 | > 100 | > 100 | 56.2 |  |  |  |  |  |  | 
12 | CCCCCCCCCCCCCCCC(=O)NC(CCCCN)C(=O)NCC(=O)NC(Cc1ccccc1)C(=O)N1CCCC1C(=O)NC(CO)C(=O)NC(Cc1ccc(O)cc1)C(=O)NC(CCCCN)C(=O)NC(CC(C)C)C(=O)NC(CCCN=C(N)N)C(=O)N1CCCC1C(=O)NCC(N)=O (stereo unspecified) (Palmitoyl-KGFPSYKLRPG-NH2; configuration not given here) | 42.5 |  | 47.9 | 35.2 |  |  | 49.4 | 50.8 | 44.8 | 44 | 20.2 | 20.2 | 19 | 22.2 | 21.9 | 17.1 | 21.1
13 | CSc1nc(Br)nc2c1ncn2C1CC(Oc2ccc(C)cc2)C(COc2ccc(C)cc2)O1 (stereo unspecified) | > 100 | > 100 |  | > 100 | > 100 | > 100 | > 100 | > 100 | > 100 | > 100 |  |  |  |  |  |  | 
14 | COC(=O)CCc1ccc2c(c1)CC1(C2)Cc2ccc(CCC(=O)OC)cc2C1 | > 100 | > 100 | > 100 | > 100 | > 100 | 97.1 |  | > 100 | > 100 | > 100 |  |  |  |  |  |  | 
15 | O=C(CCN1CCCCC1CO)Nc1ccc2c(c1)C(=O)c1ccc(NC(=O)CCN3CCCCC3CO)cc1C2=O (stereo unspecified) | 52.5 | 20.6 | 46.1 | 20.8 | 54 | 20.8 |  |  | 27.2 |  |  |  |  |  |  |  | 
16 | BrCC[P+](c1ccccc1)(c1ccccc1)c1ccccc1 |  | 13.2 | 30.9 | 27.2 | > 100 | 17.6 | 19.8 | 10.8 | 34.5 | 30.5 |  |  |  |  |  |  | 
17 | O=C1O/C(=C\c2ccc(O)cc2)C(c2ccc(O)c(Cl)c2)=C1Br |  | 34.5 | 10.5 | 23.6 | 26.7 | 61.2 | 27.6 | 53.2 | 49.9 | 37.1 |  |  |  |  |  |  | 
18 | C=CCOn1c(C=C)nc2c(C)cccc21 | 16.9 | 4.84 | 20.6 | 17.8 | 13.9 | 12.2 |  | 3.4 | 8.05 | 12.5 |  |  |  |  |  |  | 
19 | COc1cc([C@@H]2c3cc4c(cc3[C@@H](Nc3ccc(Cl)cc3C(=O)c3ccccc3Cl)[C@H]3COC(=O)[C@H]23)OCO4)cc(OC)c1OC |  | 0.364 | > 100 | > 100 |  | > 100 | > 100 | 0.397 | > 100 | > 100 |  |  |  |  |  |  | 
20 | COC(=O)c1ccc(OCc2ccc3nc(-c4ccccc4)c(Cl)nc3c2)cc1 |  | > 100 |  | > 100 | > 100 | > 100 | > 100 | > 100 | > 100 | > 100 |  |  |  |  |  |  | 
21 | Fc1nc(F)nc(-c2c3ccccc3c3n2CCS3)n1 | > 100 | 92.7 | > 100 | > 100 | > 100 | > 100 |  |  |  |  |  |  |  |  |  |  | 
